Measurements as given in patent US8158647B2, “Substituted pyrrolopyridines and pyrazolopyridines as kinase modulators” (SGX Pharmaceuticals, Inc., priority 2007, dated 2012).

How the values were obtained:
[1] = molecular target: T1, purified and unphosphorylated T315I Abl kinase domain (ABL_T315I_0P) (Mus musculus, UniProt P00520, T315I); assay: c-Abl T315I (unphosphorylated kinase domain) pyruvate kinase/lactate dehydrogenase coupled enzyme assay; assay type: biochemical; conditions: 10 μM ATP
T1 construct: The c-Abl T3151 KD (kinase domain) was purified as follows; Met-Ser-Leu (vector-derived residues) (N); made in house; host or cells: E. coli BL21(DE3) strains (Codon+RIL, or pSA0145 for the lambda phosphatase co-expression plasmid)
T1 sequence (P00520 242-493 T315I limits assumed): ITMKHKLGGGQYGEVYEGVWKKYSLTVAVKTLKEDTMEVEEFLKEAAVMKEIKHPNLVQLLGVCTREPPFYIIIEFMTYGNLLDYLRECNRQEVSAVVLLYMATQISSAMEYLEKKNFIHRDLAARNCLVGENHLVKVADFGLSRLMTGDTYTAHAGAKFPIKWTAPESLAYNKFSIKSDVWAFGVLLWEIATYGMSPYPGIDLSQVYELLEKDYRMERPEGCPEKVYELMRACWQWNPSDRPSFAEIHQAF

ABL P210WT BAF3 cells = molecular target: T2, ABL P210WT BAF3 cells (Homo sapiens, UniProt P00519); assay: 96-well XTT cell survival assay, BaF3 ABL P210WT; assay type: cell-based; conditions: ABL P210 WT, 72 hours, read-out: CELL BIO ABL P210WT BAF3 XTT (IC50)
T2 construct: ABL P210WT BAF3; fused on or other part: P11274 (Breakpoint cluster region protein)
Summary of the method: (§1)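 Ba/F3 cells in RPMI 1640 with 10% FBS (IL-3 medium for maintenance) were seeded at 5000-8000 cells/well and exposed to compound dilutions in duplicate for 72 h at 37° C. Viability read by XTT/PMS, absorbance 405 nm minus 650 nm after 2-6 h.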

ABL T315I BAF3 cells = molecular target: T3, ABL T315I BAF3 cells (Homo sapiens, UniProt P00519, T315I, cells depend on it); assay: 96-well XTT cell survival assay, BaF3 ABL T315I; assay type: cell-based; conditions: 72 hours, read-out: CELL BIO ABL T315I BAF3 XTT (IC50)
T3 construct: ABL T315I BAF3; fused on or other part: P11274 (Breakpoint cluster region protein)
Summary of the method: as §1

ABL_T315I_0P (IC50) [1] | SMILES | GI50 (ABL P210WT BAF3 cells) | GI50 (ABL T315I BAF3 cells)
D (<0.01 μM) | COc1ccc(F)cc1-c1c[nH]c2ncc(-c3cncc(C(=O)N(C)C)c3)c(Cl)c12 [5-[4-Chloro-3-(5-fluoro-2-methoxy-phenyl)-1H-pyrrolo[2,3-b]pyridin-5-yl]-N,N-dimethyl-nicotinamide] | < 10 nM | 10 to 100 nM
D (<0.01 μM) | CN(C)C(=O)c1cncc(-c2cnc3[nH]cc(-c4ccccc4F)c3c2Cl)n1 [6-[4-Chloro-3-(2-fluoro-phenyl)-1H-pyrrolo[2,3-b]pyridin-5-y] [6-[4-Chloro-3-(2-fluoro-phenyl)-1H-pyrrolo[2,3-b]pyridin-5-yl]-pyrazine-2-carboxylic acid dimethylamide] | > 1000 nM | > 1000 nM
D (<0.01 μM) | CN(C)C(=O)c1cncc(-c2cnc3[nH]cc(-c4ccc(F)cc4)c3c2Cl)n1 [6-[4-Chloro-3-(4-fluoro-phenyl)-1H-pyrrolo[2,3-b]pyridin-5-yl]-pyrazine-2-carboxylic acid dimethylamide] | 100 to 1000 nM | > 1000 nM
D (<0.01 μM) | COc1ccc(F)cc1-c1c[nH]c2ncc(-c3cncc(C(=O)N(C)C)n3)c(Cl)c12 [6-[4-Chloro-3-(5-fluoro-2-methoxy-phenyl)-1H-pyrrolo[2,3-b]pyridin-5-yl]-pyrazine-2-carboxylic acid dimethylamide] | 10 to 100 nM | 10 to 100 nM
D (<0.01 μM) | CN(C)C(=O)c1cncc(-c2cnc3[nH]cc(-c4ccccc4F)c3c2Cl)n1 [6-[4-chloro-3-(2-fluoro-phenyl)-1H-pyrrolo[2,3,b]pyridine-5-] | 100 to 1000 nM | 100 to 1000 nM
D (<0.01 μM) | OC(c1cncc(-c2cnc3[nH]cc(-c4ccccc4)c3c2Cl)c1)c1ncccc1F (stereo not drawn) [[5-(4-Chloro-3-phenyl-1H-pyrrolo[2,3-b]pyridin-5-yl)-pyridin-3-yl]-(3-fluoro-pyridin-2-yl)-methanol] | 100 to 1000 nM | 100 to 1000 nM
C (0.1-0.01 μM) | CNc1c(Br)cnc2[nH]cc(-c3ccccc3OC)c12 [[5-Bromo-3-(2-methoxy-phenyl)-1H-pyrrolo[2,3-b]pyridin-4-yl]-methyl-amine] | > 1000 nM | > 1000 nM
D (<0.01 μM) | Nc1ncc(-c2cnc3[nH]cc(-c4cc(F)ccc4F)c3c2Cl)cc1C(=O)N1CCCC1CO (stereo not drawn) [{2-Amino-5-[4-chloro-3-(2,5-difluoro-phenyl)-1H-pyrrolo[2,3-b]pyridin-5-yl]-pyridin-3-yl}-(2-hydroxymethyl-pyrrolidin-1-yl)-methanone] | 100 to 1000 nM | 100 to 1000 nM
D (<0.01 μM) | CN(C)C1CCN(C(=O)c2cc(-c3cnc4[nH]cc(-c5cc(F)ccc5F)c4c3Cl)cnc2N)C1 (stereo not drawn) [{2-Amino-5-[4-chloro-3-(2,5-difluoro-phenyl)-1H-pyrrolo[2,3-b]pyridin-5-yl]-pyridin-3-yl}-(3-dimethylamino-pyrrolidin-1-yl)-methanone] | 100 to 1000 nM | 100 to 1000 nM
D (<0.01 μM) | Nc1ncc(-c2cnc3[nH]cc(-c4cc(F)ccc4F)c3c2Cl)cc1C(=O)N1CC(O)C1 [{2-Amino-5-[4-chloro-3-(2,5-difluoro-phenyl)-1H-pyrrolo[2,3-b]pyridin-5-yl]-pyridin-3-yl}-(3-hydroxy-azetidin-1-yl)-methanone] | 100 to 1000 nM | 100 to 1000 nM
D (<0.01 μM) | Nc1ncc(-c2cnc3[nH]cc(-c4cc(F)ccc4F)c3c2Cl)cc1C(=O)N1CCOCC1 [{2-Amino-5-[4-chloro-3-(2,5-difluoro-phenyl)-1H-pyrrolo[2,3-b]pyridin-5-yl]-pyridin-3-yl}-morpholin-4-yl-methanone] | 100 to 1000 nM | 100 to 1000 nM
D (<0.01 μM) | COc1ccccc1-c1c[nH]c2ncc(-c3cnc(N)c(C(=O)N4CCOCC4)c3)c(Cl)c12 [{2-Amino-5-[4-chloro-3-(2-methoxy-phenyl)-1H-pyrrolo[2,3-b]pyridin-5-yl]-pyridin-3-yl}-morpholin-4-yl-methanone] | 100 to 1000 nM | 100 to 1000 nM
D (<0.01 μM) | Nc1ncc(-c2cnc3[nH]cc(-c4cccc(F)c4)c3c2Cl)cc1C(=O)N1CCCC1CO (stereo not drawn) [{2-Amino-5-[4-chloro-3-(3-fluoro-phenyl)-1H-pyrrolo[2,3-b]pyridin-5-yl]-pyridin-3-yl}-(2-hydroxymethyl-pyrrolidin-1-yl)-methanone] | 100 to 1000 nM | 100 to 1000 nM
D (<0.01 μM) | CN(C)C1CCN(C(=O)c2cc(-c3cnc4[nH]cc(-c5cccc(F)c5)c4c3Cl)cnc2N)C1 (stereo not drawn) [{2-Amino-5-[4-chloro-3-(3-fluoro-phenyl)-1H-pyrrolo[2,3-b]pyridin-5-yl]-pyridin-3-yl}-(3-dimethylamino-pyrrolidin-1-yl)-methanone] | 100 to 1000 nM | 100 to 1000 nM
D (<0.01 μM) | Nc1ncc(-c2cnc3[nH]cc(-c4cccc(F)c4)c3c2Cl)cc1C(=O)N1CC(O)C1 [{2-Amino-5-[4-chloro-3-(3-fluoro-phenyl)-1H-pyrrolo[2,3-b]pyridin-5-yl]-pyridin-3-yl}-(3-hydroxy-azetidin-1-yl)-methanone] | 100 to 1000 nM | 100 to 1000 nM
D (<0.01 μM) | Nc1ncc(-c2cnc3[nH]cc(-c4cccc(F)c4)c3c2Cl)cc1C(=O)N1CCOCC1 [{2-Amino-5-[4-chloro-3-(3-fluoro-phenyl)-1H-pyrrolo[2,3-b]pyridin-5-yl]-pyridin-3-yl}-morpholin-4-yl-methanone] | 10 to 100 nM | 10 to 100 nM
D (<0.01 μM) | OC(c1cccc(-c2cnc3[nH]cc(-c4ccccc4F)c3c2Cl)c1)c1ncco1 (stereo not drawn) [{3-[4-Chloro-3-(2-fluoro-phenyl)-1H-pyrrolo[2,3-b]pyridin-5-yl]-phenyl}-oxazol-2-yl-methanol] | > 1000 nM | > 1000 nM
C (0.1-0.01 μM) | OC(c1cccc(-c2cnc3[nH]cc(-c4ccc(F)cc4)c3c2Cl)c1)c1ncco1 (stereo not drawn) [{3-[4-Chloro-3-(4-fluoro-phenyl)-1H-pyrrolo[2,3-b]pyridin-5-yl]-phenyl}-oxazol-2-yl-methanol] | > 1000 nM | > 1000 nM
D (<0.01 μM) | OC(c1cncc(-c2cnc3[nH]cc(-c4cccc(F)c4F)c3c2Cl)c1)c1ncccc1F (stereo not drawn) [{5-[4-Chloro-3-(2,3-difluoro-phenyl)-1H-pyrrolo[2,3-b]pyridin-5-yl]-pyridin-3-yl}-(3-fluoro-pyridin-2-yl)-methanol] | 100 to 1000 nM | 100 to 1000 nM
D (<0.01 μM) | OC(c1cncc(-c2cnc3[nH]cc(-c4cccc(F)c4F)c3c2Cl)c1)C1CC1 (stereo not drawn) [{5-[4-Chloro-3-(2,3-difluoro-phenyl)-1H-pyrrolo[2,3-b]pyridin-5-yl]-pyridin-3-yl}-cyclopropyl-methanol] | 100 to 1000 nM | 100 to 1000 nM
D (<0.01 μM) | Cn1nccc1C(O)c1cncc(-c2cnc3[nH]cc(-c4ccccc4F)c3c2Cl)c1 (stereo not drawn) [{5-[4-Chloro-3-(2-fluoro-phenyl)-1H-pyrrolo[2,3-b]pyridin-5-yl]-pyridin-3-yl}-(2-methyl-2H-pyrazol-3-yl)-methanol] | > 1000 nM | > 1000 nM
D (<0.01 μM) | OC(c1cncc(-c2cnc3[nH]cc(-c4ccccc4F)c3c2Cl)c1)c1ncco1 (stereo not drawn) [{5-[4-Chloro-3-(2-fluoro-phenyl)-1H-pyrrolo[2,3-b]pyridin-5-yl]-pyridin-3-yl}-oxazol-2-yl-methanol] | 100 to 1000 nM | 100 to 1000 nM
C (0.1-0.01 μM) | OC(c1cncc(-c2cnc3[nH]cc(-c4ccc(F)cc4)c3c2Cl)c1)c1ncccc1F (stereo not drawn) [{5-[4-Chloro-3-(4-fluoro-phenyl)-1H-pyrrolo[2,3-b]pyridin-5-yl]-pyridin-3-yl}-(3-fluoro-pyridin-2-yl)-methanol] | > 1000 nM | > 1000 nM
D (<0.01 μM) | COc1ccc(F)cc1-c1c[nH]c2ncc(-c3cncc(C(O)c4ncccc4F)c3)c(Cl)c12 (stereo not drawn) [{5-[4-Chloro-3-(5-fluoro-2-methoxy-phenyl)-1H-pyrrolo[2,3-b]pyridin-5-yl]-pyridin-3-yl}-(3-fluoro-pyridin-2-yl)-methanol] | < 10 nM | 10 to 100 nM
